How the values were obtained:
Assay in all cases: relative viability (nuclei count vs DMSO), 5 days (fraction); higher = more cells survive
[1] = compound: Cc1ccc(C(=O)Nc2ccc(CN3CCN(C)CC3)c(C(F)(F)F)c2)cc1C#Cc1cnc2cccnn12 [Ponatinib] + Cc1nc(Nc2ncc(C(=O)Nc3c(C)cccc3Cl)s2)cc(N2CCN(CCO)CC2)n1 [Dasatinib] (partner 0.075 µM)
In short: (§1)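 For relative viability, nuclei counts in treated wells were divided by those in vehicle wells. Lung cancer cell lines had been pin-tool dosed in 1536-well plates the day after seeding and cultured for 5 days, then fixed and stained in one step (final 0.05% Triton X-100, 1% formaldehyde, 1 ug/ml Hoechst) and imaged at 4×. Doses were one drug alone or a fixed anchor-drug dose plus five library-drug doses (not always all listed) in √10 steps, and values are duplicate-plate medians.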

[2] = compound: Cc1ccc(Nc2nccc(N(C)c3ccc4c(C)n(C)nc4c3)n2)cc1S(N)(=O)=O [Pazopanib] + Cc1cc(Nc2cc(N3CCN(C)CC3)nc(Sc3ccc(NC(=O)C4CC4)cc3)n2)n[nH]1 [Tozasertib] (partner 0.1 µM)
In short: as §1

[3] = compound: Cc1ccc(Nc2nccc(N(C)c3ccc4c(C)n(C)nc4c3)n2)cc1S(N)(=O)=O [Pazopanib] + Nc1nc2[nH]cc(CCc3ccc(C(=O)N[C@@H](CCC(=O)O)C(=O)O)cc3)c2c(=O)[nH]1 [Pemetrexed] (partner 0.2 µM)
In short: as §1

[4] = compound: Cc1ccc(C(=O)Nc2ccc(CN3CCN(C)CC3)c(C(F)(F)F)c2)cc1C#Cc1cnc2cccnn12 [Ponatinib] + CC1(C)CCC(c2ccc(Cl)cc2)=C(CN2CCN(c3ccc(C(=O)NS(=O)(=O)c4ccc(N[C@H](CCN5CCOCC5)CSc5ccccc5)c(S(=O)(=O)C(F)(F)F)c4)cc3)CC2)C1 [Navitoclax] (partner 0.5 µM)
In short: as §1

Cell Line	relative viability ([1]; first compound 0.002 µM)	relative viability ([1]; first compound 0.006325 µM)	relative viability ([1]; first compound 0.06325 µM)	relative viability ([1]; first compound 0.2 µM)	relative viability ([2]; first compound 0.01 µM)	relative viability ([2]; first compound 0.03162 µM)	relative viability ([2]; first compound 0.1 µM)	relative viability ([2]; first compound 0.3162 µM)	relative viability ([2]; first compound 1 µM)	relative viability ([3]; first compound 0.01 µM)	relative viability ([3]; first compound 0.03162 µM)	relative viability ([3]; first compound 0.1 µM)	relative viability ([3]; first compound 0.3162 µM)	relative viability ([3]; first compound 1 µM)	relative viability ([4]; first compound 0.002 µM)	relative viability ([4]; first compound 0.006325 µM)	relative viability ([4]; first compound 0.06325 µM)	relative viability ([4]; first compound 0.2 µM)
NCI-H1975	0.28	0.355	0.318	0.267	0.665	0.693	0.854	0.742	0.581	0.294	0.296	0.285	0.299	0.258	1.18	1.01	1.2	0.915
NCI-H1993	0.684	0.661	0.832	0.603		0.54	0.656	0.589	0.579		0.588	0.639	0.549	0.554	0.881	1.07	1.25	0.943
NCI-H2009	0.259	0.292	0.297	0.295	0.787	0.738	0.613	0.801	0.51	1.06	1.06	0.977	0.971	0.925	1.12	1.07	1.13	1.13
NCI-H2023	0.494	0.522	0.807	0.409	0.467	0.318	0.38	0.331	0.242	0.18	0.206	0.271	0.22	0.216	0.968	0.946	1.1	1
NCI-H2085	0.268	0.261	0.221	0.237	0.738	0.848	0.828	0.786	0.776	0.816	1.09	0.804	0.949	1.03	1.1	1.16	1.28	1.16
NCI-H2087	0.83	0.743	0.798	0.525	0.298	0.27	0.279	0.281	0.256	0.61	0.65	0.637	0.59	0.657	0.825	0.771	0.864	0.995
NCI-H2126	0.554	0.564	0.65	0.531	0.805	0.828	0.877	0.86	0.842	0.662	0.703	0.68	0.693	0.721	0.823	0.871	0.963	0.848
NCI-H2170	0.46	0.591	0.561	0.491	0.772	0.724	0.73	0.67	0.674	0.258	0.307	0.264	0.277	0.258	0.643	0.661	0.684	0.765
NCI-H2228	0.372	0.515	0.462	0.393	0.265	0.271	0.265	0.26	0.302	0.366	0.337	0.296	0.348	0.333	1.18	1.01	1.43	0.811
NCI-H2347	0.302	0.301	0.404	0.362	0.45	0.586	0.607	0.593	0.588	0.444	0.421	0.429	0.426	0.386	0.684	0.834	0.899	0.719
NCI-H2405	0.17	0.206	0.187	0.202	0.77	0.777	0.79	0.75	0.76	0.97	1.11	1.17	1.14	1.41	0.855	0.917	0.844	0.62
NCI-H3122	0.773	0.85	0.838	0.809	0.408	0.382	0.435	0.394	0.426	0.207	0.188	0.188	0.191	0.212	1.04	1.03	1.04	1.01
PC-3 [JPC-3]	0.99	0.981	1.12	0.917	0.947	0.918	0.916	0.915	0.756		0.993	0.957	1.06	1.15	0.792	0.754	0.902	0.748
PC-14	0.244	0.24	0.292	0.248	0.69	0.636	0.725	0.586	0.603	0.133	0.137	0.124	0.133	0.126	0.927	1	1.14	0.919
RERF-LC-KJ	0.707	0.824	0.93	0.844	0.557	0.522	0.507	0.432	0.331	0.498	0.517	0.443	0.432	0.541	1.09	0.968	1.07	1.06
SK-LU-1	0.19	0.178	0.172	0.137	0.332	0.361	0.334	0.28	0.318	0.926	1.01	1.05	0.994	0.911	0.702	0.792	0.902	0.453
SK-MES-1	0.32	0.413	0.455	0.33	0.934	0.891	0.916	0.905	0.786	0.91	0.981	0.961	0.924	0.985	1.25	1.12	1.3	1.19

From the supplement of paper PMC10307832
